Legend:
[1] = test system: mouse cervical cancer cell line U14; assay: Mice U14 subcutaneous model, complex combined with chemotherapy; assay type: in vivo, C57 female mice; conditions: U14 sc
Experimental: C57 female mice aged 6-8 weeks were raised. The mouse cervical cancer cell line U14 cultured to the logarithmic growth phase was prepared into a cell suspension and the cell density was 2×10^7/ml. Experimental animals were subcutaneously injected on the right back, with an injection system of 100 μl per mouse. When the tumor could be palpated (tumor volume is about 4 mm×4 mm×3 mm, i.e. the 5th day after inoculation), the mice were randomly divided into 6 groups, and administrated every 3 days for a total of 8 times according to the grouping and treatment scheme in Table 16. The tumor volume was measured every three days. After administration for 8 times, the mice were killed and subcutaneous tumors were dissected for examination.
Wherein, the administration volume is 100 μl per mouse, DDP is intraperitoneally administrated once a week. DDP is Cisplatin and LP is pMVA-1/DOTAP complex.

A549 cells [2] = assay: ROS level by H2DCF-DA fluorescence probe, flow cytometry; assay type: cell-based
Experimental: (1) Sample loading: […] (3) […] CM-H2DCFDA fluorescent probe (made by Sigma) was added to the resuspended cells prepared in Step (2), incubated at 37° C. for 0.5 h, washed with PBS and resuspended; (4) The resuspended cells in Step (3) were tested with flow cytometry (Novocyte), and the test results were analyzed by Novoexpress software.

A549 cells [3] = assay: Death ratio of A549 cells pretreated with NAC, flow cytometry; assay type: cell-based; conditions: pretreated with NAC before pMVA-1/DOTAP complex

N.N.[Cl][Pt][Cl] [Cisplatin]
lymphocyte infiltration in tumor tissue [1]: less common
tumor volume vs NS group, DOTAP group and pMVA-1 group ([1]; Q3d x 8): significantly lower
tumor growth ([1]; Q3d x 8, Cisplatin ip once a week): slow tumor growth

OO [H2O2]
intracellular ROS level (A549 cells [2]; A549, 3 h, H2O2 at 200 μM, *P<0.05): increased significantly

CC(=O)N[C@@H](CS)C(=O)O [NAC, N-Acetyl-L-cysteine]
intracellular ROS level after NAC pretreatment (A549 cells [2]; A549 pretreated with 5 mM NAC before pMVA-1/DOTAP complex): decreased significantly
death ratio of A549 cells (A549 cells [3]): significantly reduced

Reference: patent publication US11738072B2, “Tumor vaccine and uses thereof” (WestVac Biopharma Co., Ltd., priority 2017, dated 2023)
